Assay results reported in ChEMBL document CHEMBL1151140, “Enantiomeric Relationships and Anthelmintic Activity of Dysinin Derivatives from Dysidea Marine Sponges” (J Nat Prod, 1990).
The source made the active and inactive calls. The calls are words filed in the database; no cut-off is given here.

How the values were obtained:
[1] = tested on: Nippostrongylus brasiliensis; assay: Anthelmintic activity against Nippostrongylus brasiliensis at 50 ug/ml; assay type: functional, organism-based
[2] = Anthelmintic activity against Hypselodoris nana at 1000 ppm; assay type: functional
[3] = tested on: Nippostrongylus; assay: Anthelmintic activity against Nippostrongylus dubias at 1000 ppm; assay type: functional, organism-based

| SMILES | Activity [1] | Activity [2] | Activity [3] |
| --- | --- | --- | --- |
| CC(=O)SCC1=C[C@H]2Cc3occc3C(C)(C)[C@@H]2CC1 | Active |  |  |
| CO[C@]12C[C@@H]3C=C(CSC(C)=O)CC[C@H]3C(C)(C)C1=CC(=O)O2 | inactive |  |  |
| CC1=C[C@H]2Cc3occc3C(C)(C)[C@@H]2CC1 | Active | inactive | inactive |
| CC1(C)c2ccoc2C[C@@H]2C=C(CSSCC3=C[C@H]4Cc5occc5C(C)(C)[C@@H]4CC3)CC[C@H]21 | Active |  |  |
